Assay results: patent US4992449A, “7-(substituted)cycloalkylamino-1 -(substituted)-6-fluoro-1,4-dihydro-4-oxo-3-quinolinecarboxylic acids” (American Cyanamid Company, priority 1990, dated 1991)
≈ marks a conversion by molar mass, not a printed value.

Assays:
Assay in all cases: In vitro antibacterial MIC, agar plate dilution
Type in all cases: cell-based
[1] = system: Citrobacter diversus K 82-24; settings: Citrobacter koseri, K8224, Mueller-Hinton agar, 10^4 CFU, 18 hours, 35° C.
Protocol: (§1) The in vitro antimicrobial spectrum of the compounds of this invention were determined by the agar plate dilution method with Mueller-Hinton agar and an inoculum of each test organism of approximately 10^4 colony forming units delivered by the Steers replicating device. The minimal inhibitory concentration (MIC) in mcg/ml is defined as the lowest concentration of test compound that inhibited visible growth after 18 hours incubation at 35° C. Results are given in Table I, with the test compounds identified by the number of their hereinafter described examples

[2] = system: Enterobacter cloacae K 84-10; settings: K8410, Mueller-Hinton agar, 10^4 CFU, 18 hours, 35° C.
Protocol: as §1

[3] = system: Enterobacter cloacae MOR 84-30; settings: MOR8430, Mueller-Hinton agar, 10^4 CFU, 18 hours, 35° C.
Protocol: as §1

[4] = system: Enterobacter cloacae VGH 84-39; settings: VGH8439, Mueller-Hinton agar, 10^4 CFU, 18 hours, 35° C.
Protocol: as §1

[5] = system: Escherichia coli ATCC 25922; settings: Escherichia coli, ATCC25922, 18 h, Table I; Escherichia coli ATCC 25922; Mueller-Hinton agar, 10^4 CFU, 18 hours, 35° C.; read-out: MIC
Protocol: as §1

[6] = system: Escherichia coli CMC 84-50; settings: CMC8450, Mueller-Hinton agar, 10^4 CFU, 18 hours, 35° C.
Protocol: as §1

[7] = system: Escherichia coli MOR 84-20; settings: MOR8420, Mueller-Hinton agar, 10^4 CFU, 18 hours, 35° C.
Protocol: as §1

[8] = system: Escherichia coli VGH 84-19; settings: VGH8419, Mueller-Hinton agar, 10^4 CFU, 18 hours, 35° C.
Protocol: as §1

[9] = system: Klebsiella neumoniae CMC 84-31; settings: CMC8431, Mueller-Hinton agar, 10^4 CFU, 18 hours, 35° C.
Protocol: as §1

[10] = system: Klebsiella neumoniae IO 83-5; settings: IO835, Mueller-Hinton agar, 10^4 CFU, 18 hours, 35° C.
Protocol: as §1

[11] = system: Klebsiella neumoniae MOR 84-24; settings: MOR8424, Mueller-Hinton agar, 10^4 CFU, 18 hours, 35° C.
Protocol: as §1

[12] = system: Moranella morganii CMC 84-38; settings: Mueller-Hinton agar, 10^4 CFU, 18 hours, 35° C.
Protocol: as §1

[13] = system: Moranella morganii VGH 84-12; settings: Mueller-Hinton agar, 10^4 CFU, 18 hours, 35° C.
Protocol: as §1

[14] = system: Morganella morganii MOR 84-45; settings: MOR8445, Mueller-Hinton agar, 10^4 CFU, 18 hours, 35° C.
Protocol: as §1

[15] = system: Proteus rettgeri IO 83-21; settings: Providencia rettgeri, IO8321, Mueller-Hinton agar, 10^4 CFU, 18 hours, 35° C.
Protocol: as §1

[16] = system: Providencia stuartii CMC 83-3; settings: CMC833, Mueller-Hinton agar, 10^4 CFU, 18 hours, 35° C.
Protocol: as §1

[17] = system: Pseudomonas aeruginosa CMC 83-20; settings: CMC8320, Mueller-Hinton agar, 10^4 CFU, 18 hours, 35° C.
Protocol: as §1

[18] = system: Pseudomonas aeruginosa VGH 84-16; settings: VGH8416, Mueller-Hinton agar, 10^4 CFU, 18 hours, 35° C.
Protocol: as §1

[19] = system: Pseudomonas aeruginosa VGH 84-3; settings: VGH843, Mueller-Hinton agar, 10^4 CFU, 18 hours, 35° C.
Protocol: as §1

[20] = system: Serratia marcescens CMC 83-74; settings: CMC8374, Mueller-Hinton agar, 10^4 CFU, 18 hours, 35° C.
Protocol: as §1

[21] = system: Serratia marcescens IO 83-63; settings: IO8363, Mueller-Hinton agar, 10^4 CFU, 18 hours, 35° C.
Protocol: as §1

[22] = system: Serratia marcescens MOR 84-41; settings: MOR8441, Mueller-Hinton agar, 10^4 CFU, 18 hours, 35° C.
Protocol: as §1

[23] = system: Staphylococcus aureus ATCC 29213; settings: Staphylococcus aureus, ATCC29213, 18 h, Table I, Mueller-Hinton agar, 10^4 CFU, 18 hours, 35° C., read-out: MIC
Protocol: as §1

[24] = system: Staphylococcus aureus CMC 83-131; settings: CMC83131, Mueller-Hinton agar, 10^4 CFU, 18 hours, 35° C.
Protocol: as §1

[25] = system: Staphylococcus aureus K 82-26; settings: K8226, Mueller-Hinton agar, 10^4 CFU, 18 hours, 35° C.
Protocol: as §1

[26] = system: Staphylococcus aureus VGH 84-47; settings: VGH8447, Mueller-Hinton agar, 10^4 CFU, 18 hours, 35° C.
Protocol: as §1

[27] = system: Staphylococcus faecalis CMC 83-120; settings: CMC83120, Mueller-Hinton agar, 10^4 CFU, 18 hours, 35° C.
Protocol: as §1

[28] = system: Staphylococcus faecalis VGH 84-69; settings: VGH8469, Mueller-Hinton agar, 10^4 CFU, 18 hours, 35° C.
Protocol: as §1

[29] = system: Streptococcus faecalis UCI 85-30; settings: Enterococcus faecalis, UCI8530, Mueller-Hinton agar, 10^4 CFU, 18 hours, 35° C.
Protocol: as §1

## N[C@H]1CCCC[C@H]1Nc1cc2c(cc1F)c(=O)c(C(=O)O)cn2C1CC1 (relative stereo) [Example 1, Cis-7-[(2-Aminocyclohexyl)amino]1-cyclopropyl-6-fluoro-1,4-dihydro-4-oxo-3-quinolinecarboxylic acid]
[1]
  MIC: 0.25 mg/L (≈ 0.696 µM)
[2]
  MIC: 0.5 mg/L (≈ 1.39 µM)
[3]
  MIC: 1 mg/L (≈ 2.78 µM)
[4]
  MIC: 0.5 mg/L (≈ 1.39 µM)
[5]
  MIC: 0.25 mg/L (≈ 0.696 µM)
[6]
  MIC: 1 mg/L (≈ 2.78 µM)
[7]
  MIC: 0.25 mg/L (≈ 0.696 µM)
[8]
  MIC: 0.25 mg/L (≈ 0.696 µM)
[9]
  MIC: 1 mg/L (≈ 2.78 µM)
[10]
  MIC: 1 mg/L (≈ 2.78 µM)
[11]
  MIC: 1 mg/L (≈ 2.78 µM)
[12]
  MIC: 1 mg/L (≈ 2.78 µM)
[13]
  MIC: 1 mg/L (≈ 2.78 µM)
[14]
  MIC: 0.5 mg/L (≈ 1.39 µM)
[15]
  MIC: 2 mg/L (≈ 5.56 µM)
[16]
  MIC: > 16 mg/L
[17]
  MIC: 4 mg/L (≈ 11.1 µM)
[18]
  MIC: 8 mg/L (≈ 22.3 µM)
[19]
  MIC: > 16 mg/L
[20]
  MIC: 16 mg/L (≈ 44.5 µM)
[21]
  MIC: 1 mg/L (≈ 2.78 µM)
[22]
  MIC: 0.5 mg/L (≈ 1.39 µM)
[23]
  MIC: 2 mg/L (≈ 5.56 µM)
[24]
  MIC: 4 mg/L (≈ 11.1 µM)
[25]
  MIC: 2 mg/L (≈ 5.56 µM)
[26]
  MIC: 2 mg/L (≈ 5.56 µM)
[27]
  MIC: 4 mg/L (≈ 11.1 µM)
[28]
  MIC: 4 mg/L (≈ 11.1 µM)
[29]
  MIC: 4 mg/L (≈ 11.1 µM)

## N[C@H]1CCC[C@H]1Nc1cc2c(cc1F)c(=O)c(C(=O)O)cn2C1CC1 (relative stereo) [Example 2, Cis-7-[(2-Aminocyclopentyl)amino]-1-cyclopropyl-6-fluoro-1,4-dihydro-4-oxo-3-quinolinecarboxylic acid]
[1]
  MIC: 0.5 mg/L (≈ 1.45 µM)
[2]
  MIC: 1 mg/L (≈ 2.9 µM)
[3]
  MIC: 2 mg/L (≈ 5.79 µM)
[4]
  MIC: 1 mg/L (≈ 2.9 µM)
[5]
  MIC: 0.5 mg/L (≈ 1.45 µM)
[6]
  MIC: 0.5 mg/L (≈ 1.45 µM)
[7]
  MIC: 0.5 mg/L (≈ 1.45 µM)
[8]
  MIC: 1 mg/L (≈ 2.9 µM)
[9]
  MIC: 2 mg/L (≈ 5.79 µM)
[10]
  MIC: 2 mg/L (≈ 5.79 µM)
[11]
  MIC: 1 mg/L (≈ 2.9 µM)
[12]
  MIC: 1 mg/L (≈ 2.9 µM)
[13]
  MIC: 4 mg/L (≈ 11.6 µM)
[14]
  MIC: 2 mg/L (≈ 5.79 µM)
[15]
  MIC: 4 mg/L (≈ 11.6 µM)
[16]
  MIC: > 16 mg/L
[17]
  MIC: 8 mg/L (≈ 23.2 µM)
[18]
  MIC: 16 mg/L (≈ 46.3 µM)
[19]
  MIC: > 16 mg/L
[20]
  MIC: > 16 mg/L
[21]
  MIC: 2 mg/L (≈ 5.79 µM)
[22]
  MIC: 1 mg/L (≈ 2.9 µM)
[23]
  MIC: 4 mg/L (≈ 11.6 µM)
[24]
  MIC: > 16 mg/L
[25]
  MIC: 4 mg/L (≈ 11.6 µM)
[26]
  MIC: 4 mg/L (≈ 11.6 µM)
[27]
  MIC: > 16 mg/L
[28]
  MIC: > 16 mg/L
[29]
  MIC: > 16 mg/L
